Test results published in patent US10905782B2, “Compositions for enhancing transport of molecules into cells” (priority 2003, dated 2021).

Assays:
[1] = system: trypsin; assay: Degradation of conjugate by trypsin; format: in vitro ADME; conditions: data not shown
[2] = system: HeLa pLuc705 derived from HeLa S3, HeLa, NIH3T3, and Jurkat; assay: Cellular uptake by fluorescent microscopy in live cells; format: cell-based
Method: HeLa pLuc/705 (Kang, Cho et al. 1998) is a HeLa S3 cell line stably transfected with a plasmid carrying the luciferase coding sequence interrupted by a mutated human β-globin intron 2 (Gene Tools, Philomath, Oreg.). Other cell lines were obtained from ATCC (Manassas, Va.). The PMO's were 3′-labeled with fluorescein as described in Example 1. To avoid artifacts, all fluorescent images were taken from live cells, and no fixative agent or mounting media were used.
Cells were plated onto a 48-well plate. The next day the conditioned medium was removed and the test substances in fresh medium were added to the wells. After incubation, the cells were washed with phosphate-buffered saline (PBS) three times and visualized directly in the culture medium with a Nikon Diaphot 300 inverted microscope. Images were captured with an Olympus digital camera connected to a computer using MagnaFire software (Optronics, Goleta, Calif.).

[3] = system: HeLa pLuc705 cells; assay: Fluorometry: association (adsorption) of fluorescein-labeled conjugate with cells; format: cell-based, human
Method: HeLa pLuc/705 cells plated in a 48 well plate were treated with medium containing test substance. After incubation, cells were washed with PBS three times.
To measure the sum of membrane-bound and internalized fluorescence, cells were lysed directly in the wells by addition of 100 μl of cell lysis buffer (Promega, Madison, Wis.) to each well. Cell lysates were collected. The total fluorescence was determined by mixing 20 μl of cell lysate and 80 μl of 0.1 M Na2CO3 (pH 11) and measuring with an Flx 800 microplate fluorescence-luminescence reader with excitation at 485 nm and emission at 524 nm.
To measure internalized conjugate, the membrane-bound conjugate was removed by trypsinization, as follows. Trypsin (100 μl, 10%, Hyclone, Logan, Utah) was added to each well and incubated for 6 minutes at 37° C., followed by addition of 300 μl of culture media. The cells were spun down and washed with PBS, then lysed with 100 μl cell lysis buffer. The fluorescence of the cell lysate was measured as described above.

[4] = system: 705 splice site (luciferase gene interrupted by a human β-globin intron mutated at nucleotide 705); assay: pLuc/705 splice correction assay: luciferase production in HeLa pLuc/705 cells; format: cell-based; conditions: splice-correction assay monitored over time
Method: The data described below was obtained by targeting a β-globin splice correction sequence fused to luciferase.
Other cell lines were obtained from ATCC (Manassas, Va.). […] All assays were carried out with exponentially growing cells in culture media containing 10% fetal bovine serum (FBS) unless otherwise specified.
This assay measures the ability of steric blocking oligomers to enter cells and nuclei, block incorrect splicing of pre-mRNA, and thus cause expression of a reporter gene. It avoids the confusion of cytotoxicity with activity that can affect down-regulation assays, as cells must be able to carry out RNA processing and translation to produce a signal. Because oligomers must enter cells and cell nuclei to produce a signal in the assay, it is very useful for measuring uptake and effectiveness of delivery moieties.
The time course of the uptake of various transporter-PMO-fluorescein conjugates, as described above, in HeLa pLuc/705 cells was studied by fluorescence spectroscopy. Experiments were generally run in triplicate. According to the general procedure, culture medium containing the test substance at a specified concentration was added to HeLa pLuc/705 cells plated in a 48-well plate. After incubation, at each time point, the cells were washed with PBS three times, and the cell lysate was collected as described under “Fluorometry”, above. The amount of functional luciferase produced was determined by mixing 30 μl of cell lysate and 50 μl of Luciferase Assay Reagent (LAR) (Promega, Wis.) and measuring the light production using a Flx 800 microplate fluorescence/luminescence reader (Bio-tek, Vermont). The relative light units were normalized to μg of protein determined by the bicinchoninic acid (BCA) method, following the manufacturer's procedure (Pierce, Ill.).

“R9F2C-PMO: covalent conjugate of PMO 705 and transport peptide R9F2 via cysteine; fluorescein-labeled in uptake studies (chain RRRRRRRRRFFC; antisense cctcttacctcagttaca; cysteine linkage; PMO; fluorescein; synthetic transport peptide; synthetic oligomer)” was tested, and the “sensitivity to degradation by trypsin” value [1] was “sensitive to degradation by trypsin”, the pattern of fluorescence ([2]; HeLa S3 cells) was “less intense cytosolic diffuse fluorescence” and the pattern of fluorescence ([2]; HeLa cells) was “mostly diffused fluorescence”. For the same substance, the “location of fluorescence in cells” value ([2]; HeLa, NIH3T3 or HeLa pLuc/705 cells, 20 minutes treatment, DHE nuclear stain) was “Diffuse green fluorescence was seen in both cytoplasm and nucleus”, the pattern of fluorescence ([2]; Jurkat cells) was “lowest level of fluorescence” and the pattern of fluorescence ([2]; NIH3T3 cells) was “very bright and diffused cytosolic and nuclear fluorescence”. For the same substance, the “cells in which fluorescence was observed” value ([2]; all four cell lines, live cells) was 100%, the “fluorescence of cells incubated at 37° C. compared with 17° C.” value ([3]; 0.1 to 5 μM, 70 minutes) was “similar” and the “time at which cell fluorescence reached maximum intensity” value ([3]; HeLa pLuc705 cells, 1 μM, 900 minute study period) was 30 to 45 min. For the same substance, the “adsorption with increasing concentration” value ([3]; increase between 0.1-1 μM, not between 1-5 μM) was “saturable” and the “incubation time after which luciferase was produced” value [4] was 120 min.
